Measurements: patent publication US7977352B2, “Triazolopyridine compounds useful for the treatment of degenerative and inflammatory diseases” (Galapagos NV, priority 2006, dated 2011)

biological target: T1, TAK1-TAB1 fusion protein (Homo sapiens, UniProt O43318); assay: In vitro TAK1 kinase assay; format: biochemical; conditions: casein substrate, [33P]-γ-ATP, 90 minutes at 30° C., semi-quantitative score, read-out: POTENCY TAK1 (MAP3K7)
T1 construct: purchased Upstate 14-600
T1 sequence (O43318 with tags, fused parts or gaps limits assumed): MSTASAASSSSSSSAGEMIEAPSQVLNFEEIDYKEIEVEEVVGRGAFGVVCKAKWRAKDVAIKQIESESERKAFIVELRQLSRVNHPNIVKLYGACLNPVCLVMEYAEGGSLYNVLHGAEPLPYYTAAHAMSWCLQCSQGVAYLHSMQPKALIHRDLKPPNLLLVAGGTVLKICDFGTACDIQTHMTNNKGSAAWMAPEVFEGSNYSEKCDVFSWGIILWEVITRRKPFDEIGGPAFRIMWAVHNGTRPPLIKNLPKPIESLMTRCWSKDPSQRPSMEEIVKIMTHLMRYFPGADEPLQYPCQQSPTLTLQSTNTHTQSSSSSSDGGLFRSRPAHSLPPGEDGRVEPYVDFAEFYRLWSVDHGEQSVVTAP
In short: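 Radiometric kinase assay with TAK1-TAB1 fusion protein (0.5 mU), casein substrate, ATP plus [^33P]-γ-ATP in MOPS pH 7.0/EDTA buffer, compounds in 3-fold dilutions. 90 min at 30 °C, stopped with phosphoric acid; casein-incorporated label captured on filter plates and counted by scintillation.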

First: NC(=O)c1ccc(-c2ccc(Nc3ccc(N4CCOCC4)cc3)c3ncnn23)cc1 [Example 1, 4-[8-(4-Morpholin-4-yl-phenylamino)-[1,2,4]triazolo[1,5-a]pyridin-5-yl]-benzamide]
Second: c1nc2c(Nc3ccc(N4CCOCC4)cc3)ccc(-c3cn[nH]c3)n2n1 [Example 7, (4-Morpholin-4-yl-phenyl)-[5-(1H-pyrazol-4-yl)-[1,2,4]triazolo[1,5-a]pyridin-8-yl]-amine]
The IC50 of the first is higher: over 10 µM for the first, 0.501 to 1 µM for the second.

`CN1CCN(c2ccc(Nc3ccc(-c4cn[nH]c4)n4ncnc34)cc2)CC1` [Example 2, [4-(4-Methyl-piperazin-1-yl)-phenyl]-[5-(1H-pyrazol-4-yl)-[1,2,4]triazolo[1,5-a]pyridin-8-yl]-amine] and `CN1CCN(c2ccc(Nc3ccc(-c4cc[nH]c(=O)c4)n4ncnc34)cc2)CC1` [Example 4, 4-{8-[4-(4-Methyl-piperazin-1-yl)-phenylamino]-[1,2,4]triazolo[1,5-a]pyridin-5-yl}-1H-pyridin-2-one] fall in the same range of IC50: 0.501 to 1 µM for the first, 0.501 to 1 µM for the second.

`O=C(NCc1cccnc1)c1ccc(Nc2ccc(-c3cn[nH]c3)n3ncnc23)cc1` [Example 3, 4-[5-(1H-Pyrazol-4-yl)-[1,2,4]triazolo[1,5-a]pyridin-8-ylamino]-N-pyridin-3-ylmethyl-benzamide] and `O=C(NCc1cccnc1)c1ccc(Nc2ccc(-c3cc[nH]c(=O)c3)n3ncnc23)cc1` [Example 5, 4-[5-(2-oxo-1,2-dihydro-pyridin-4-yl)-[1,2,4]triazolo[1,5-a]pyridin-8-ylamino]-N-pyridin-3-ylmethyl-benzamide] fall in the same range of IC50: 0.501 to 1 µM for the first, 0.501 to 1 µM for the second.

Compared with `Cc1[nH]ncc1-c1ccc(Nc2ccc(N3CCOCC3)cc2)c2ncnn12` [Example 8, [5-(5-Methyl-1H-pyrazol-4-yl)-[1,2,4]triazolo[1,5-a]pyridin-8-yl]-(4-morpholin-4-yl-phenyl)-amine], `CN1CCN(c2ccc(Nc3ccc(-c4cn[nH]c4)n4ncnc34)cc2)CC1` [Example 36, N-[4-(4-methylpiperazin-1-yl)phenyl]-5-(1H-pyrazol-4-yl)[1,2,4]triazolo[1,5-a]pyridin-8-amine] is lower in IC50: 1 to 5 µM for the first, under 0.5 µM for the second.

Compared with `O=C(NCc1cccnc1)c1ccc(Nc2ccc(-c3cn[nH]c3)n3ncnc23)cc1` [Example 37, 4-{[5-(1H-pyrazol-4-yl)[1,2,4]triazolo[1,5-a]pyridin-8-yl]amino}-N-(pyridin-3-ylmethyl)benzamide], `O=C(NCc1cccnc1)c1ccc(Nc2ccc(-c3cc[nH]c(=O)c3)n3ncnc23)cc1` [Example 41, 4-{[5-(2-oxo-1,2-dihydropyridin-4-yl)[1,2,4]triazolo[1,5-a]pyridin-8-yl]amino}-N-(pyridin-3-ylmethyl)benzamide] is higher in IC50: 0.501 to 1 µM for the first, 1 to 5 µM for the second.

First: Cc1[nH]ncc1-c1ccc(Nc2ccc(N3CCOCC3)cc2)c2ncnn12 [Example 39, 5-(5-methyl-1H-pyrazol-4-yl)-N-(4-morpholin-4-ylphenyl)[1,2,4]triazolo[1,5-a]pyridin-8-amine]
Second: CN1CCN(c2ccc(Nc3ccc(-c4cc[nH]c(=O)c4)n4ncnc34)cc2)CC1 [Example 40, 4-(8-{[4-(4-methylpiperazin-1-yl)phenyl]amino}[1,2,4]triazolo[1,5-a]pyridin-5-yl)pyridin-2(1H)-one]
The IC50 of the first is higher: 1 to 5 µM for the first, under 0.5 µM for the second. The second is the more potent here.

`CN1CCN(c2ccc(Nc3ccc(-c4ccc(C(N)=O)c(F)c4)n4ncnc34)cc2)CC1` [Example 42, 2-fluoro-4-(8-{[4-(4-methylpiperazin-1-yl)phenyl]amino}[1,2,4]triazolo[1,5-a]pyridin-5-yl)benzamide] gave an IC50 of 1 to 5 µM.
